Results reported in PubChem BioAssay (NCI).
Values joined by “and” are separate entries in the source; they are usually repeats but may differ in a detail not shown here. Equal entries are not always repeated.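 Growth conditions: 96-well plates. Treatment: test compound, 48 hours, 5 concentrations. Analysis: linear interpolation between bracketing concentrations; unreached endpoints set to highest concentration. Here, GI50 denotes the concentration required for 50% inhibition of growth. TGI: total growth inhibition.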

Legend:
Test in all cases: growth of human tumour cells (NCI), 48 h
[1] = test system: OVCAR-5 ovarian
[2] = test system: OVCAR-3 ovarian
[3] = test system: A498 renal
[4] = test system: SN12C renal
[5] = test system: UACC-62 melanoma
[6] = test system: U251 CNS
[7] = test system: IGROV1 ovarian
[8] = test system: HL-60(TB) leukemia
[9] = test system: SK-MEL-2 melanoma
[10] = test system: HCT-116 colon

| SMILES | TGI [1] | TGI [2] | TGI [3] | TGI [4] | TGI [5] | TGI [6] | TGI [7] | TGI [8] | TGI [9] | TGI [10] | GI50 [1] | GI50 [2] | GI50 [3] | GI50 [4] | GI50 [5] | GI50 [6] | GI50 [7] | GI50 [8] | GI50 [9] | GI50 [10] |
| --- | --- | --- | --- | --- | --- | --- | --- | --- | --- | --- | --- | --- | --- | --- | --- | --- | --- | --- | --- | --- |
| COC(=O)Cc1cc(=O)oc2c1C(=O)CCC2 | > 100 µM | > 100 µM | > 100 µM | > 100 µM | > 100 µM | > 100 µM | > 100 µM | > 100 µM | > 100 µM | > 100 µM |  |  |  |  |  |  |  |  |  |  |
| Cc1ccc(-c2cc(C(Cl)Cl)on2)cc1 | > 100 µM | > 100 µM | > 100 µM | > 100 µM | > 100 µM | > 100 µM | > 100 µM | > 100 µM | > 100 µM | > 100 µM | > 100 µM | 51.8 µM | 42.7 µM | > 100 µM | 66.8 µM | 55.1 µM | > 100 µM | 62.9 µM | > 100 µM | 36.1 µM |
| N#CC1=C(N)NC(=S)C(C#N)C12Nc1ccccc1S2 (stereo not drawn) |  | 40.1 µM |  | 33.2 µM | 33.4 µM | 40.2 µM | 72.5 µM | > 100 µM | 58.1 µM | 41.7 µM |  | 12.6 µM |  | 14.4 µM | 18 µM | 18.3 µM | 29.3 µM | 35.1 µM | 29.3 µM | 18.5 µM |
| CNc1ccc(N=Nc2cccc3ncccc23)cc1 | > 100 µM |  | > 68.4 µM | > 100 µM | > 100 µM | > 100 µM | > 100 µM | > 100 µM | > 100 µM |  | 0.0278 µM |  |  | 36.5 µM | 13.1 µM | 31.5 µM |  | 4.88 µM | > 100 µM |  |
| CCC1(Cl)C(=O)NC(=O)N(C2CC(O)C(CO)O2)C1N=[N+]=[N-] (stereo not drawn) | > 100 µM | > 100 µM | > 100 µM | > 100 µM | > 100 µM | > 100 µM | > 100 µM | > 100 µM | > 100 µM |  |  |  |  |  |  |  |  |  |  |  |
| CCCCOP1(=O)C=CC(Cl)=C(C)C1 (stereo not drawn) |  | 77.7 µM |  | 49.8 µM | 54.4 µM |  |  | 39.6 µM | 50.8 µM | 46.9 µM |  |  |  |  |  |  |  |  |  |  |
| Cc1cc(C(=O)Nc2cc(Nc3ncccc3-c3ncnc4nc[nH]c34)ccc2F)cc(C(C)(C)C#N)c1 | > 100 µM | > 100 µM | 0.491 µM | > 100 µM |  | > 100 µM | > 100 µM | > 100 µM | 2.04 µM | > 41.9 µM | 0.211 µM | 5.99 µM | 0.0748 µM | 1.91 µM |  | 3.74 µM | 0.694 µM | 0.167 µM | 0.0866 µM | 0.151 µM |
| CCCC(=O)Nc1cn(COC)c(C(=O)N2C[C@H]3C[C@@]34C2=CC(=O)c2[nH]cc(C)c24)n1 | 50 µM and > 100 µM | 24.5 µM and 72 µM | 17.9 µM | 42.9 µM and 71.2 µM | 14.5 µM and 26.1 µM | 50 µM and > 100 µM | 50 µM and > 100 µM |  | 50 µM and > 100 µM | 50 µM and 12 µM | 6.13 µM | 4.93 µM |  | 5.55 µM |  |  | 6.68 µM |  | 7.39 µM | 2.32 µM |
| C=C1C(=O)C23CC1CCC2C12CO[C@@]3(O)[C@@H](O)C1C(C)(C)C=CC2=O (stereo partly drawn) | 9.96 µM and 40.5 µM | 2.75 µM |  | 3.87 µM and 4.05 µM | 2.37 µM and 19.3 µM | 5.15 µM and 33.3 µM |  |  | 1.99 µM | 1.01 µM and 9.03 µM | 25 µM |  |  | 2.03 µM | 4.89 µM | 16.7 µM |  | 0.434 µM |  | 2.9 µM |
| N=C(N)SCC(=O)O | > 100 µM | > 100 µM | > 100 µM | > 100 µM | > 100 µM | > 100 µM | > 100 µM |  | > 100 µM | > 100 µM |  |  |  |  |  |  |  |  |  |  |
| O=C1OC(c2ccc(Cl)c3ccccc23)c2ccccc21 (stereo not drawn) | > 100 µM |  | > 100 µM | > 100 µM | > 100 µM | > 100 µM | > 100 µM | > 100 µM | > 100 µM | > 100 µM |  |  |  |  |  |  |  |  |  |  |
| COc1cc(/C=C2/C(=O)N(C(=O)c3ccccc3O)N=C2C)ccc1O | > 100 µM | 0.989 µM |  | > 39.1 µM | 0.364 µM | > 100 µM | 2.06 µM | > 52.9 µM | > 100 µM | > 100 µM |  |  |  |  |  |  |  |  |  |  |
| C/C(=N\O)[C@H]1CC[C@@]2(C)[C@@H]3CC[C@H]4C(C)(C)/C(=N/O)CC[C@@]45CC35CC[C@]12C (stereo partly drawn) |  |  | 5.87 µM | > 16.7 µM | > 16.7 µM | 6.81 µM | > 16.7 µM | > 16.7 µM | > 16.7 µM | 5.77 µM |  |  | 2.46 µM | 6.58 µM | 5.44 µM | 3.51 µM | 5.28 µM | 1.62 µM | 13.4 µM | 2.45 µM |
| Cc1ccc(N2C(=O)/C(=C3\Sc4c(nc(C)n(C)c4=O)N3c3ccccc3)SC2=S)cc1 | > 100 µM |  | 69 µM | > 100 µM | > 100 µM | > 100 µM | > 100 µM | > 100 µM | > 100 µM | > 100 µM |  |  |  |  |  |  |  |  |  |  |
| CC(C)(C)c1cc(C(=O)O)c(C(c2ccccc2)c2ccccc2C(=O)O)c(C(=O)O)c1 (stereo not drawn) | > 100 µM | > 100 µM |  | 49.1 µM | > 100 µM | 25.4 µM |  | > 100 µM | > 100 µM | > 100 µM |  |  |  |  |  |  |  |  |  |  |
| CC(=O)Oc1ccc2c(c1)O/C(=C\c1ccc(O)cc1)C2=O |  | > 100 µM |  | > 100 µM | > 100 µM | > 100 µM | > 100 µM | > 100 µM |  | > 100 µM |  |  |  |  |  |  |  |  |  |  |
| C=C1c2ccccc2N(S(=O)(=O)c2ccc(C)cc2)C12CCCCC2 | > 100 µM | > 100 µM |  | > 100 µM | > 100 µM | > 100 µM | > 100 µM | > 100 µM | > 100 µM | > 100 µM |  |  |  |  |  |  |  |  |  |  |
| CCOC(=O)c1cc(C(=O)O)c(=O)n2c1[nH]c1ccccc12 |  | > 100 µM | > 100 µM | > 100 µM | > 100 µM | > 100 µM | > 100 µM | > 100 µM | > 100 µM | > 100 µM |  |  |  |  |  |  |  |  |  |  |
| CC12O[Te]34OC1(C)C(C)(O3)C2(C)O4 | 23.7 µM | 30.4 µM | > 8.75 µM | 23 µM | 87.5 µM | 15.2 µM | 24.9 µM |  | 29.8 µM | 23.2 µM |  |  |  |  |  |  |  |  |  |  |
| O=C(O)C(Cc1c[nH]c2ccccc12)N1C(=O)c2ccccc2C1=O (stereo not drawn) | > 100 µM | > 100 µM | > 100 µM | > 100 µM | > 100 µM | > 100 µM | > 100 µM |  | > 100 µM | > 100 µM |  |  |  |  |  |  |  |  |  |  |
| CC1(C)Oc2ccccc2N2O[C@@H]3C(=O)N(c4ccccc4)C(=O)[C@@H]3C21c1ccccc1 (stereo partly drawn) | > 100 µM | 47 µM | 47.3 µM |  | 87.8 µM | 69.1 µM | > 100 µM |  | 53.3 µM | 59.7 µM |  |  |  |  |  |  |  |  |  |  |
| Cc1ccc(NCCNCC(O)CO)c2c(=O)c3ccccc3sc12 (stereo not drawn) | 3.67 µM | 4.7 µM |  | 3.19 µM | 3.08 µM | 3.51 µM | 3.43 µM | 3.7 µM | 3.49 µM | 2.3 µM | 1.74 µM | 2.15 µM |  | 1.32 µM | 1.54 µM | 1.67 µM | 1.61 µM | 1.62 µM | 1.77 µM | 1.05 µM |
| CC(=O)Nc1ccc2c(c1)CN1C(=O)c3ccccc3C1=N2 | > 100 µM | > 100 µM | > 100 µM |  | > 100 µM | > 100 µM | > 100 µM | > 100 µM |  | > 100 µM | > 100 µM | > 100 µM | > 100 µM |  | > 100 µM | > 100 µM | > 100 µM | > 100 µM |  | > 100 µM |
| CC[C@H](C)[C@H](NC(=O)N[C@@H](C)c1ccccc1)C(=O)N(C)[C@H](C[C@@H](OC(C)=O)c1nc(C(=O)N[C@@H](Cc2ccccc2)C[C@H](C)C(=O)OC)cs1)C(C)C | > 100 µM | 42.2 µM |  | > 100 µM | > 100 µM | > 100 µM | > 100 µM |  | > 100 µM | 68.5 µM | 27.9 µM | 16.9 µM |  | 48.8 µM | 6.96 µM | 33.1 µM | 20.9 µM |  | 18.3 µM | 21.8 µM |
| COc1ccc(-c2conc2-c2ccccc2)cc1 | > 100 µM |  | 0.58 µM | > 100 µM | > 100 µM | > 100 µM | > 100 µM | 1.41 µM | > 100 µM | > 100 µM | 0.832 µM |  | 0.107 µM | 1 µM | 0.689 µM | 0.468 µM | 0.498 µM | 0.288 µM | 0.585 µM | 0.318 µM |
| CCOC(=O)/N=c1\ssc(Cl)c1Cl | 28.1 µM | 20.9 µM |  | 25.8 µM | 29.6 µM | 13.8 µM |  | > 100 µM | 60.4 µM | > 100 µM | 4.86 µM | 6.53 µM |  | 6.7 µM | 14 µM | 3.34 µM |  | 6.41 µM | 12.1 µM | 3.35 µM |
| O=C(NOC(=O)c1ccc([N+](=O)[O-])cc1)c1ccc(Cl)cc1 | > 100 µM |  | > 100 µM | > 100 µM | > 100 µM | > 100 µM | 59.4 µM | 34.3 µM | > 100 µM | > 100 µM |  |  |  |  |  |  |  |  |  |  |
| O=C1Nc2ccc(Br)cc2C1=Nc1ccc(Cl)cc1 | 39.8 µM | 40 µM | > 100 µM | 31.2 µM | 12.6 µM | 88.8 µM |  | 39 µM |  | 62.9 µM |  |  |  |  |  |  |  |  |  |  |
